Assays:
HeLa cells [1] = experiment: Lactate levels in culture media of HeLa cells (BioVision kit); type: cell-based; details: 20 μM
Description: FIG. 14. Lactate levels in the culture media of HeLa cells incubated with 20 μM Compound (1). Lactate levels were assayed with a BioVision kit (Catalog #K607-100).

HeLa cells [2] = experiment: Apoptosis induction in HeLa cells (FACS, propidium iodide and annexin V); type: cell-based; details: Homo sapiens, 48 hr incubation
Description: FIG. 12. Apoptosis induction in HeLa cells following 48 hr incubation with Compound (1) IC50=70 nM. Apoptosis was evaluated by FACS, labeling the cells with propidium iodide and annexin V.
FIG. 13. Apoptosis induction in HeLa cells following 48 hr incubation with Compound (1). IC50=70 nM. Apoptosis was evaluated by FACS, labeling the cells with propidium iodide and annexin V.

Which “lactate levels in the culture media” value (HeLa cells [1]) does the source give for `O=C(N1CCN(c2ccccc2)CC1)N1c2ccccc2Oc2ccccc21` [Compound (1)] here?
Its value is “lowered lactate levels”.

And the IC50 (HeLa cells [2])?
Its IC50 is 70 nM.

— patent US12527782B2, “Use of hexokinase 2/mitochondria-detaching compounds for treating hexokinase-2 (HK2)-expressing cancers” (Vidac Pharma Ltd., priority 2016, dated 2026)
